Source: patent EP2955182A1, “Pyridazinones for the treatment of cancer” (Max-Planck-Gesellschaft zur Förderung der Wissenschaften …, priority 2014, dated 2015)

Assays:
BxPC-3 = experiment: Real time cell analysis (RTCA) impedance proliferation measurement; assay type: cell-based; settings: administered 24 hours after seeding, monitored up to 100 hours
Panc-Tu-I = experiment: as above
PDEδ = PDEδ (Homo sapiens, UniProt O43924); experiment: Fluorescence polarization competition binding assay (displacement titration of labeled Atorvastatin-probe); settings: fluorescence polarization assay, displacement of fluorescent-tagged Atorvastatin analog from PDEδ; read-out: KD
Text: Example C.2: Displacement titrations of labeled Atorvastatin-probe for the determination of KD values:
Table 3. KD values for compounds of general formula (I) as determined by means of fluorescence polarization assay

Kd (PDEδ) | Structure (SMILES) | proliferation of K-Ras dependent cells (BxPC-3) | cell death (Panc-Tu-I; Panc-Tu-I (Figure 6f), after a certain time) | proliferation of K-Ras dependent cells (Panc-Tu-I; Panc-Tu-I, administered 24 hours after seeding, monitored up to 100 hours)
– | Cc1ccc(-n2nc3c(=O)n(CCCC(=O)NCC(C)c4ccccc4)nc(C)c3c2C)cc1 (centres unmarked) [Compound 50, 4-(3,4-dimethyl-7-oxo-2-(p-tolyl)-2H-pyrazolo[3,4-d]pyridazin-6(7H)-yl)-N-(2-phenylpropyl)butanamide] | inhibits the proliferation | leading after a certain time to cell death | inhibits the proliferation
< 30 nM | Cc1ccc(-n2nc3c(=O)n(CCCC(=O)NC4CCCC4)nc(C)c3c2C)cc1 [Compound 52, N-cyclopentyl-4-(3,4-dimethyl-7-oxo-2-(p-tolyl)-2H-pyrazolo[3,4-d]pyridazin-6(7H)-yl)butanamide] | – | – | –
< 30 nM | Cc1ccc(-n2nc3c(=O)n(CCCC(=O)NC4CCC(C)CC4)nc(C)c3c2C)cc1 (centres unmarked) [Compound 53, 4-(3,4-dimethyl-7-oxo-2-(p-tolyl)-2H-pyrazolo[3,4-d]pyridazin-6(7H)-yl)-N-(4-methylcyclohexyl)butanamide] | – | – | –
